According to patent US7626030B2, “Compounds and methods of use” (Amgen Inc., priority 2004, dated 2009):

Assays:
[1] = target: T1, c-Met in PC3 cells (Homo sapiens, UniProt P08581); test: c-Met cell-based autophosphorylation assay, PC3 cells; settings: HGF-stimulated
T1 construct: host or cells: PC3 cells
Description: c-Met Cell-Based Autophosphorylation Assay
Human PC3 and mouse CT26 cells are available obtained from ATCC. The cells were cultured in a growth medium containing RPMI 1640, penicillin/streptomycin/glutamine (1×) and 5% FBS. 2×10^4 cells in medium were plated per well in a 96 well plate and incubated at 37° C. overnight. The cells were serum-starved by replacing the growth media with basic medium (DMEM low glucose+0.1 BSA, 120 μL per well) at 37° C. for 16 h. Compounds (either 1 mM and 0.2 mM) in 100% DMSO were serially diluted (1:3) 3333 fold on a 96 well plate, diluting 1:3 with DMSO from column 1 to 11 (columns 6 and 12 receive no compound). Compound samples (2.4 μL per well) were diluted with basic medium (240 μL) in a 96 well plate. The cells were washed once with basic medium (GIBCO, DMEM 11885-076) then compound solution was added (100 μL). The cells were incubated at 37° C. for 1 h. A (2 mg/mL) solution of CHO-HGF (7.5 μL) was diluted with 30 mL basic medium to provide a final concentration of 500 ng/mL. This HGF-containing media (120 μL) was transferred to a 96 well plate. Compounds (1.2 μL) was added to the HGF-containing media and mixed well. The mixture of media/HGF/compound (100 μL) was added to the cells (final HGF concentration—250 ng/mL) then incubated at 37° C. for 10 min. A cell lysate buffer (20 mL) was prepared containing 1% Triton X-100, 50 mM Tris pH 8.0, 100 mM NaCl, Protease inhibitor (Sigma, #P-8340) 200 μL, Roche Protease inhibitor (Complete, # 1-697-498) 2 tablets, Phosphatase Inhibitor II (Sigma, #P-5726) 200 μL, and a sodium vanadate solution (containing 900 μL PBS, 100 μL 300 mM NaVO3, 6 μl H2O2 (30% stock) and stirred at RT for 15 min) (90 μL). The cells were washed once with ice cold 1×PBS (GIBCO, #14190-136), then lysis buffer (60 μL) was added and the cells were incubated on ice for 20 min.
The IGEN assay was performed as follows: Dynabeads M-280 streptavidin beads were pre-incubated with biotinylated anti-human HGFR (240 μL anti-human-HGFR (R&D system, BAF527 or BAF328) @ 100 μg/mL+360 μL Beads (IGEN #10029+5.4 μL buffer−PBS/1% BSA/0.1% Tween20) by rotating for 30 min at RT. Antibody beads (25 μL) were transferred to a 96 well plate. Cell lysate solution (25 μL) was transferred added and the plate was shaken at RT for 1 h. Anti-phosphotyrosine 4G10 (Upstate 05-321) (19.7 μL antibody+6 mL 1×PBS) (12.5 μL) was added to each well, then incubated for 1 h at RT. Anti-mouse IgG ORI-Tag (ORIGEN #110087) (24 μL Antibody+6 mL buffer) (12.5 μL) was added to each well, then incubated at RT for 30 min. 1×PBS (175 μL) was added to each well and the electrochemiluminescence was read by an IGEN M8. Raw data was analyzed using a 4-parameter fit equation in XLFit. IC50 values are then determined using Grafit software.

[2] = test system: Human Umbilical Vein Endothelial cells; test: HUVEC proliferation assay (VEGF-stimulated); format: cell-based; settings: read-out: inhibition of VEGF-stimulated HUVEC proliferation, level
Description: HUVEC Proliferation Assay
Human Umbilical Vein Endothelial cells are purchased from Clonetics, Inc., as cryopreserved cells harvested from a pool of donors. These cells, at passage 1, are thawed and expanded in EBM-2 complete medium, until passage 2 or 3. The cells are trypsinized, washed in DMEM+10% FBS+antibiotics, and spun at 1000 rpm for 10 min. Prior to centrifugation of the cells, a small amount is collected for a cell count. After centrifugation, the medium is discarded, and the cells are resuspended in the appropriate volume of DMEM+10% FBS+antibiotics to achieve a concentration of 3×10^5 cells/mL. Another cell count is performed to confirm the cell concentration. The cells are diluted to 3×10^4 cells/mL in DMEM+10% FBS+antibiotics, and 100 μL of cells are added to a 96-well plate. The cells are incubated at 37° C. for 22 h.
Prior to the completion of the incubation period, compound dilutions are prepared. Five-point, five-fold serial dilutions are prepared in DMSO, at concentrations 400-fold greater than the final concentrations desired. 2.5 μL of each compound dilution are diluted further in a total of 1 mL DMEM+10% FBS+antibiotics (400× dilution). Medium containing 0.25% DMSO is also prepared for the […]. At the 22 h timepoint, the medium is removed from the cells, and 100 μL of each compound dilution is added. The cells are incubated at 37° C. for 2-3 h.
During the compound pre-incubation period, the growth factors are diluted to the appropriate concentrations. Solutions of DMEM+10% FBS+antibiotics, containing either VEGF or bFGF at the following concentrations: 50, 10, 2, 0.4, 0.08, and 0 ng/mL are prepared. For the compound-treated cells, solutions of VEGF at 550 ng/mL or bFGF at 220 ng/mL for 50 ng/mL or 20 ng/mL final concentrations, respectively, are prepared since 10 μL of each will be added to the cells (110 μL final volume). At the appropriate time after adding the compounds, the growth factors are added. VEGF is added to one set of plates, while bFGF is added to another set of plates. For the growth factor control curves, the media on wells B4-G6 of plates 1 and 2 are replaced with media containing VEGF or bFGF at the varying concentrations (50-0 ng/mL). The cells are incubated at 37° C. for an additional 72 h.
At the completion of the 72 h incubation period, the medium is removed, and the cells are washed twice with PBS. After the second wash with PBS, the plates are tapped gently to remove excess PBS, and the cells are placed at −70° C. for at least 30 min. The cells are thawed and analyzed using the CyQuant fluorescent dye (Molecular Probes C-7026), following the manufacturer's recommendations. The plates are read on a Victor/Wallac 1420 workstation at 485 nm/530 nm (excitation/emission). Raw data are collected and analyzed using a 4-parameter fit equation in XLFit. IC50 values are then determined.

T1 sequence (P08581 25-1390): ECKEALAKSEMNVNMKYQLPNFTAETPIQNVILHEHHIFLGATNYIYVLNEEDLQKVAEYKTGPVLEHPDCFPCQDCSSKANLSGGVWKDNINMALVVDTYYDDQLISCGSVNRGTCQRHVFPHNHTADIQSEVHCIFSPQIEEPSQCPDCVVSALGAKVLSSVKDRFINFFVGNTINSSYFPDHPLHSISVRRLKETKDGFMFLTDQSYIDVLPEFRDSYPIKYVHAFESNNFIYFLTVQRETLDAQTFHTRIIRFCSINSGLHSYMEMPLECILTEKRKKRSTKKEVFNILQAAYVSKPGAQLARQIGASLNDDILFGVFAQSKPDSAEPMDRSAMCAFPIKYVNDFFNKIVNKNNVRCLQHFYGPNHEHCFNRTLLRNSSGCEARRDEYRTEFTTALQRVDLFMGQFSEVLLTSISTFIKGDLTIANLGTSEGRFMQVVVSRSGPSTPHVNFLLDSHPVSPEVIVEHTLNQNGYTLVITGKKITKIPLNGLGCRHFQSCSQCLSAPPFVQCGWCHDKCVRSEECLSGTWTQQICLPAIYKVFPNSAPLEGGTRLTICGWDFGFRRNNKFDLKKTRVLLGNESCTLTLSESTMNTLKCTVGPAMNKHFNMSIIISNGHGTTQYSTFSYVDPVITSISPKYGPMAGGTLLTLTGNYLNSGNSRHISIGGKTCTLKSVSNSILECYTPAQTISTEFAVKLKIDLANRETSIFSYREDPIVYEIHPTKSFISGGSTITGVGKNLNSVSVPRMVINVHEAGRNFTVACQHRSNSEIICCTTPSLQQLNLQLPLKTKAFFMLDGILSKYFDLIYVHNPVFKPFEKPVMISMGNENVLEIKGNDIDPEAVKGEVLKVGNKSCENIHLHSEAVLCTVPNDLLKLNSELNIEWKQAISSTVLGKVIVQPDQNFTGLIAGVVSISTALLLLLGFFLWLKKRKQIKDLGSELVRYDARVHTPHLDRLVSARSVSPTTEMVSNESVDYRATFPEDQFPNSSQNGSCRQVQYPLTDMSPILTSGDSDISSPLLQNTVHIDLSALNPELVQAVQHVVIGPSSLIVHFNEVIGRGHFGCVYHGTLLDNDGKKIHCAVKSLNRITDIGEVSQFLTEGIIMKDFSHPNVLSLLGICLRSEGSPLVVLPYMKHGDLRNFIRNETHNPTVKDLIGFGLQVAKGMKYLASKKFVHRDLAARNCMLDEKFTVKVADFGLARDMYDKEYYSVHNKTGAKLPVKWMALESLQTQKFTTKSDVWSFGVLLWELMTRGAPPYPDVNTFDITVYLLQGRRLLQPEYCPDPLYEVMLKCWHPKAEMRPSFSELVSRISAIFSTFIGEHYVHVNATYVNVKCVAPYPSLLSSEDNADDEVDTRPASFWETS

IC50 [1] | Compound | IC50 [2]
< 1000 nM | COc1cc2nccc(Oc3ccc4nc(NC(=O)c5ccsc5)sc4c3)c2cc1OC [Example 46, Thiophene-3-carboxylic acid [6-(6,7-dimethoxy-quinolin-4-yloxy)-benzothiazol-2-yl]-amide] | 
< 1000 nM | Cc1cc(Oc2ccc3nc(NC(=O)Cc4ccccc4)sc3c2)ccn1 [Example 82, N-[6-(2-Methyl-pyridin-4-yloxy)-benzothiazol-2-yl]-2-phenyl-acetamide] | 
< 1000 nM | COc1cc2nccc(Oc3ccc4oc(Nc5ccc(Cl)cc5)nc4c3)c2cc1OC [Example 96, 5-((6,7-bis(methoxy)-4-quinolinyl)oxy)-N-(4-chlorophenyl)-1,3-benzoxazol-2-amine] | 
< 1000 nM | COc1cc2c(Oc3ccc4nc(NC(=O)c5ccccc5)sc4c3)ccnc2cc1OCCCN(C)C [Example 102, N-(6-((7-((3-(dimethylamino)propyl)oxy)-6-(methoxy)-4-quinolinyl)oxy)-1,3-benzothiazol-2-yl)benzamide] | 
< 1000 nM | COc1cc2c(Oc3ccc4nc(NC(=O)c5ccsc5)sc4c3)ccnc2cc1OCCCN1CCOCC1 [Example 104, N-(6-((6-(methoxy)-7-((3-(4-morpholinyl)propyl)oxy)-4-quinolinyl)oxy)-1,3-benzothiazol-2-yl)-1-3-thiohenecarboxamide] | 
 | COc1ccc(C(=O)Nc2nn(C)c3cc(Oc4ccnc5cc(OC)c(OC)cc45)ccc23)cc1 [Example 132, N-(6-((6,7-bis(methyloxy)-4-quinolinyl)oxy)-1-methyl-1H-indazol-3-yl)-4-(methyloxy)benzamide] | < 500 nM
 | COc1cc2nccc(Oc3ccc4c(NC(=O)c5ccc(Cl)cc5)nn(C)c4c3)c2cc1OC [Example 134, N-(6-((6,7-bis(methoxy)-4-quinolinyl)oxy)-1-methyl-1H-indazol-3-yl)-4-chlorobenzamide] | < 500 nM
 | COc1cc2nccc(Oc3ccc4c(NC(=O)c5ccc(C(F)(F)F)cc5)nn(C)c4c3)c2cc1OC [Example 135, N-(6-((6,7-bis(methoxy)-4-quinolinyl)oxy)-1-methyl-1H-indazol-3-yl)-4-(trifluoromethyl)benzamide] | < 500 nM
 | COc1cc2nccc(Oc3ccc4c(NC(=O)c5ccc(F)c(Cl)c5)nn(C)c4c3)c2cc1OC [Example 137, N-(6-((6,7-bis(methoxy)-4-quinolinyl)oxy)-1-methyl-1H-indazol-3-yl)-3-chloro-4-fluorobenzamide] | < 500 nM
 | COc1cc2nccc(Oc3ccc4c(NC(=O)c5cc(C(F)(F)F)cc(C(F)(F)F)c5)nn(C)c4c3)c2cc1OC [Example 138, N-(6-((6,7-bis(methoxy)-4-quinolinyl)oxy)-1-methyl-1H-indazol-3-yl)-3,5-bis(trifluoromethyl)benzamide] | < 500 nM
 | COc1cc2nccc(Oc3ccc4c(NC(=O)c5cccc(C)c5)nn(C)c4c3)c2cc1OC [Example 139, N-(6-((6,7-bis(methoxy)-4-quinolinyl)oxy)-1-methyl-1H-indazol-3-yl)-3-methylbenzamide] | < 500 nM
 | COc1cc2nccc(Oc3ccc4c(NC(=O)c5cc(Cl)ccn5)nn(C)c4c3)c2cc1OC [Example 140, N-(6-((6,7-bis(methoxy)-4-quinolinyl)oxy)-1-methyl-1H-indazol-3-yl)-4-chloro-2-pyridinecarboxamide] | < 500 nM
 | COc1cc2nccc(Oc3ccc4c(NC(=O)Nc5ccc(C)cc5)nn(C)c4c3)c2cc1OC [Example 142, N-(6-((6,7-bis(methoxy)quinolinyl)oxy)-1-methyl-1H-indazol-3-yl)-N′-(4-methylphenyl)urea] | < 500 nM
 | COc1cc2nccc(Oc3ccc4c(NC(=O)Nc5ccccc5)nn(C)c4c3)c2cc1OC [Example 144, N-(6-((6,7-bis(methoxy)-4-quinolinyl)oxy)-1-methyl-1H-indazol-3-yl)-N′-phenylurea] | < 500 nM
 | COc1ccc(NC(=O)Nc2nn(C)c3cc(Oc4ccnc5cc(OC)c(OC)cc45)ccc23)cc1 [Example 145, N-(6-((6,7-bis(methoxy)-4-quinolinyl)oxy)-1-methyl-1H-indazol-3-yl)-N′-(4-(methyloxy)phenyl)urea] | < 500 nM
